Measurements as given in patent US9023616B2, “Oil producing microbes and method of modification thereof” (DSM Nutritional Products AG, priority 2006, dated 2015).
“Also recorded” adds a separate entry of the source.

Tested on: ONC-T18
Assay: Fatty acid production antagonist supplementation of ONC-T18 culture, fatty acid profile by FAME GC-FID
Assay type: cell-based, Thraustochytrium sp. ONC-T18
Description: Media containing 25 g/l sea salt and 1 g/l yeast extract was autoclaved at 120° C. for 20 minutes. Sterilized glucose was added to the media at a concentration of 9 g/l. Sethoxydim (Supleco) was dissolved in dimethyl sulfoxide at a concentration of 5 mg/ml was then added to the media at to represent a final concentration of 100 µM. 1 ml of a 24 hour pre-culture of ONC-T 18 that had been cultured in the same media was added. Culturing was carried out in a shaker (130 rpm) for four days at room temperature. After the incubation period, cells were harvested by centrifugation at 4300 rpm for 10 minutes. The cell pellets were then freeze-dried, weighed and the oil was extracted from the cells.
(§1) The lipids were extracted and derivatized to fatty acid methyl esters (FAME) for gas chromatography analysis (GC). Transesterification and extraction was done using 200 mg freeze dried cells, with C19:0 as internal standard, added transesterification reaction mix (methanol:hydrochloric acid:chloroform, 10:1:1) mixed and heated at 90° C. for 2 hours, then allowed to cool at room temperature. FAMEs were extracted by adding 1 ml water, and 2 ml hexane:chloroform (4:1), and allow organic and aqueous phases to separate. The organic layer was extracted and treated with 0.5 g of anhydrous sodium sulfate to remove particulates and residual water. The organic solvents were evaporated under a stream of argon. The FAMEs were re-suspended in 5 ml of iso-octane and analyzed by GC-FID. The percent conversion was calculated by dividing the product produced by the sum of (the product produced plus the substrate added) and then multiplying by 100.
Media containing 6 g/l sea salt, 2 g/l yeast extract, and 8 g/l L-glutamic acid monosodium salt hydrate was autoclaved at 120° C. for 20 minutes. Sterilized D+-glucose was then added to this media at a concentration of 40 g/l. Cerulenin dissolved in ethanol at a concentration of 5 mg/ml was added to 250 ml flask and the solvent was evaporated for 1 hour prior to adding the media to the flask. The amount of cerulenin in the flask represented a final concentration of 20 mg/l. ONC-T18 was then added to the medium from a plate culture and culturing occurred in a shaker (130 rpm) at room temperature for four days. After the incubation period, cells were harvested by centrifugation at 4300 rpm for 10 minutes, washed once with distilled water, and then centrifuged again at 4300 rpm for 10 minutes. The cell pellets were then freeze-dried, weighed and the oil was extracted from the cells.
as §1, with “produced+the” for “produced plus the”
Media containing 6 g/l sea salt, 2 g/l yeast extract, and 8 g/l L-glutamic acid monosodium salt hydrate was autoclaved at 120° C. for 20 minutes. Sterilized D+-glucose wad then added at a concentration of 5 g/l or was not added to the media. Oleic acid was added to the media to represent a final concentration of 2 ml/l. […]

[1] = presence of the antagonist, oleic acid without glucose
[2] = oleic acid in combination with glucoase

## COc1cc(CNC(=O)CCCC/C=C/C(C)C)ccc1O [capsaicin]
Antagonist added to medium
  C16:0 content in ONC-T18, change versus control (in words): decrease in the content of C16:0
  C16:1 content in ONC-T18, change versus control (in words): increase the content of C16:1
[1]
  adrenic acid, lipid as percentage of total fatty acid: 0.46%
  arachidic acid, lipid as percentage of total fatty acid: 0.20%
  arachidonic acid, lipid as percentage of total fatty acid: 0.78%
  behenic acid, lipid as percentage of total fatty acid: 0.00%
  docosadienoic acid, lipid as percentage of total fatty acid: 0.17%
  docosahexaenoic acid, lipid as percentage of total fatty acid: 16.86%
  docosapentaenoic acid n-3, lipid as percentage of total fatty acid: 0.31%
  docosapentaenoic acid n-6, lipid as percentage of total fatty acid: 5.19%
  eicosadienoic acid, lipid as percentage of total fatty acid: 0.23%
  eicosapentaenoic acid, lipid as percentage of total fatty acid: 1.38%
  eicosatetraenoic acid, lipid as percentage of total fatty acid: 0.27%
  eicosatrienoic acid, lipid as percentage of total fatty acid: 0.00%
  eicosenoic acid, lipid as percentage of total fatty acid: 0.00%
  heneicosapentaenoic acid, lipid as percentage of total fatty acid: 0.00%
  hexacosanoic acid, lipid as percentage of total fatty acid: 0.00%
  homo-gamma-linolenic acid, lipid as percentage of total fatty acid: 0.22%
  lignoceric acid, lipid as percentage of total fatty acid: 0.00%
  margaric acid, lipid as percentage of total fatty acid: 0.19%
  myristic acid, lipid as percentage of total fatty acid: 21.86%
  myristoleic acid, lipid as percentage of total fatty acid: 0.28%
  nervonic acid, lipid as percentage of total fatty acid: 0.00%
  oleic acid, lipid as percentage of total fatty acid: 0.00%
  palmitic acid, lipid as percentage of total fatty acid: 24.19%
  palmitoleic acid, lipid as percentage of total fatty acid: 17.98%
  pentadecanoic acid, lipid as percentage of total fatty acid: 0.91%
  pentadecenoic acid, lipid as percentage of total fatty acid: 0.23%
  stearic acid, lipid as percentage of total fatty acid: 1.60%
  vaccenic acid, lipid as percentage of total fatty acid: 6.67%

## C/C=C/C/C=C/CCC(=O)[C@H]1O[C@H]1C(N)=O [cerulenin]
Antagonist added to medium
  C16:0 content in ONC-T18, change versus control (in words): increases
  DHA accumulated in ONC-T18, change versus control (in words): increases; also recorded: increase in the content and proportion of DHA
[1]
  adrenic acid, lipid as percentage of total fatty acid: 0.00%
  arachidic acid, lipid as percentage of total fatty acid: 0.41%
  arachidonic acid, lipid as percentage of total fatty acid: 0.30%
  behenic acid, lipid as percentage of total fatty acid: 0.11%
  docosadienoic acid, lipid as percentage of total fatty acid: 0.14%
  docosahexaenoic acid, lipid as percentage of total fatty acid: 19.97%
  docosapentaenoic acid n-3, lipid as percentage of total fatty acid: 0.23%
  docosapentaenoic acid n-6, lipid as percentage of total fatty acid: 5.83%
  eicosadienoic acid, lipid as percentage of total fatty acid: 0.17%
  eicosapentaenoic acid, lipid as percentage of total fatty acid: 1.17%
  eicosatetraenoic acid, lipid as percentage of total fatty acid: 0.36%
  eicosatrienoic acid, lipid as percentage of total fatty acid: 0.00%
  eicosenoic acid, lipid as percentage of total fatty acid: 0.19%
  heneicosapentaenoic acid, lipid as percentage of total fatty acid: 1.24%
  hexacosanoic acid, lipid as percentage of total fatty acid: 0.23%
  homo-gamma-linolenic acid, lipid as percentage of total fatty acid: 0.20%
  lignoceric acid, lipid as percentage of total fatty acid: 0.00%
  margaric acid, lipid as percentage of total fatty acid: 0.74%
  myristic acid, lipid as percentage of total fatty acid: 11.03%
  myristoleic acid, lipid as percentage of total fatty acid: 0.00%
  nervonic acid, lipid as percentage of total fatty acid: 0.00%
  oleic acid, lipid as percentage of total fatty acid: 0.29%
  palmitic acid, lipid as percentage of total fatty acid: 48.98%
  palmitoleic acid, lipid as percentage of total fatty acid: 2.22%
  pentadecanoic acid, lipid as percentage of total fatty acid: 3.23%
  pentadecenoic acid, lipid as percentage of total fatty acid: 0.10%
  stearic acid, lipid as percentage of total fatty acid: 1.86%
  vaccenic acid, lipid as percentage of total fatty acid: 1.24%

## CCCCCCCC/C=C\CCCCCCCC(=O)O [oleic acid]
Antagonist added to medium
  DHA accumulated in ONC-T18, change versus control (in words): most of the oleic acid was converted into DHA; also recorded: more DHA content was observed; also recorded: increase in the content and proportion of DHA
  EPA in ONC-T18 fatty acid profile, change versus control (in words): elevation of the EPA content; also recorded: elevated level of EPA
[2]
  adrenic acid, lipid as percentage of total fatty acid: 0.28%
  arachidic acid, lipid as percentage of total fatty acid: 0.34%
  arachidonic acid, lipid as percentage of total fatty acid: 0.46%
  behenic acid, lipid as percentage of total fatty acid: 0.00%
  docosadienoic acid, lipid as percentage of total fatty acid: 0.43%
  docosahexaenoic acid, lipid as percentage of total fatty acid: 24.65%
  docosapentaenoic acid n-3, lipid as percentage of total fatty acid: 0.39%
  docosapentaenoic acid n-6, lipid as percentage of total fatty acid: 6.46%
  eicosadienoic acid, lipid as percentage of total fatty acid: 0.36%
  eicosapentaenoic acid, lipid as percentage of total fatty acid: 2.60%
  eicosatetraenoic acid, lipid as percentage of total fatty acid: 0.24%
  eicosatrienoic acid, lipid as percentage of total fatty acid: 0.00%
  eicosenoic acid, lipid as percentage of total fatty acid: 0.30%
  heneicosapentaenoic acid, lipid as percentage of total fatty acid: 0.79%
  hexacosanoic acid, lipid as percentage of total fatty acid: 0.00%
  homo-gamma-linolenic acid, lipid as percentage of total fatty acid: 0.30%
  lignoceric acid, lipid as percentage of total fatty acid: 0.00%
  margaric acid, lipid as percentage of total fatty acid: 0.17%
  myristic acid, lipid as percentage of total fatty acid: 8.04%
  myristoleic acid, lipid as percentage of total fatty acid: 0.00%
  nervonic acid, lipid as percentage of total fatty acid: 0.00%
  oleic acid, lipid as percentage of total fatty acid: 9.49%
  palmitic acid, lipid as percentage of total fatty acid: 33.18%
  palmitoleic acid, lipid as percentage of total fatty acid: 4.22%
  pentadecanoic acid, lipid as percentage of total fatty acid: 0.73%
  pentadecenoic acid, lipid as percentage of total fatty acid: 0.00%
  stearic acid, lipid as percentage of total fatty acid: 1.60%
  vaccenic acid, lipid as percentage of total fatty acid: 4.45%
[1]
  adrenic acid, lipid as percentage of total fatty acid: 0.60%
  arachidic acid, lipid as percentage of total fatty acid: 0.00%
  arachidonic acid, lipid as percentage of total fatty acid: 0.72%
  behenic acid, lipid as percentage of total fatty acid: 0.00%
  docosadienoic acid, lipid as percentage of total fatty acid: 0.68%
  docosahexaenoic acid, lipid as percentage of total fatty acid: 33.16%
  docosapentaenoic acid n-3, lipid as percentage of total fatty acid: 0.39%
  docosapentaenoic acid n-6, lipid as percentage of total fatty acid: 7.58%
  eicosadienoic acid, lipid as percentage of total fatty acid: 0.51%
  eicosapentaenoic acid, lipid as percentage of total fatty acid: 5.47%
  eicosatetraenoic acid, lipid as percentage of total fatty acid: 0.00%
  eicosatrienoic acid, lipid as percentage of total fatty acid: 0.00%
  eicosenoic acid, lipid as percentage of total fatty acid: 0.00%
  heneicosapentaenoic acid, lipid as percentage of total fatty acid: 0.20%
  hexacosanoic acid, lipid as percentage of total fatty acid: 0.00%
  homo-gamma-linolenic acid, lipid as percentage of total fatty acid: 0.61%
  lignoceric acid, lipid as percentage of total fatty acid: 0.00%
  margaric acid, lipid as percentage of total fatty acid: 0.28%
  myristic acid, lipid as percentage of total fatty acid: 1.38%
  myristoleic acid, lipid as percentage of total fatty acid: 0.00%
  nervonic acid, lipid as percentage of total fatty acid: 0.00%
  oleic acid, lipid as percentage of total fatty acid: 25.36%
  palmitic acid, lipid as percentage of total fatty acid: 16.67%
  palmitoleic acid, lipid as percentage of total fatty acid: 1.06%
  pentadecanoic acid, lipid as percentage of total fatty acid: 0.49%
  pentadecenoic acid, lipid as percentage of total fatty acid: 0.00%
  stearic acid, lipid as percentage of total fatty acid: 1.56%
  vaccenic acid, lipid as percentage of total fatty acid: 2.68%
